Experimental findings from ChEMBL document CHEMBL5715260, “Selectivity Literature for EUbOPEN Chemogenomic Library” (2024) are described below.

Assay [1] has as its target Nuclear receptor subfamily 4immunitygroup A member 1 (Homo sapiens) (UniProt P22736). The assay can be described thus: Selectivity interaction (Reporter gene assay) EUB0001156a NR4A1. Also noted: recommended concentration 1 uM. A general note: In a reporter assay the amount or activity of a reporter protein is the signal.
The target in assay [2] is Nuclear receptor subfamily 2 group E member 1 (Homo sapiens) (UniProt Q9Y466). Briefly: Selectivity interaction (Reporter gene assay) EUB0001156a NR2E1. Also noted: recommended concentration 1 uM.
In assay [3] the target is T1, Alpha trans-inducing protein (Human alphaherpesvirus 1) (UniProt A0A5J6DW59). Briefly: Selectivity interaction (Reporter gene assay) EUB0001156a UL48. Set-up: recommended concentration 1 uM. The following applies: screened at recom. conc., Selectivity number of off-targets 0.0, Selectivity number of targets 1.0, Source Knowledge inhouse.
Assay [4] addresses T2, Hepatocyte nuclear factor 4-alpha (Homo sapiens) (UniProt P41235).
T2 sequence (whole entry): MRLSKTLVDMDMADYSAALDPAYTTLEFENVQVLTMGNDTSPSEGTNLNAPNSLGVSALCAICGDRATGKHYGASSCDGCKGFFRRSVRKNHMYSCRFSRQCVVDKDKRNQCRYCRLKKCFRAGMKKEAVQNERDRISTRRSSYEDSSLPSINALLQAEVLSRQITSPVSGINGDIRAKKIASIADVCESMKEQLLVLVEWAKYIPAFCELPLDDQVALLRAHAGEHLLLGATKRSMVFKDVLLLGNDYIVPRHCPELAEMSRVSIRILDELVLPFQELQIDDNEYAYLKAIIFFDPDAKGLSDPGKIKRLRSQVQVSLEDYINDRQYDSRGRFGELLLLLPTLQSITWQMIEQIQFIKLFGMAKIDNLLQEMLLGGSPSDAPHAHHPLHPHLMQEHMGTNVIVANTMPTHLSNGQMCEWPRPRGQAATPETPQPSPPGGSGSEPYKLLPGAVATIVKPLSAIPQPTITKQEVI
Briefly: Selectivity interaction (Reporter gene assay) EUB0001156a HNF4A. Set-up: recommended concentration 1 uM.

The target of assay [5] is T3, Retinoic acid receptor RXR-alpha (Homo sapiens) (UniProt P19793).
T3 sequence (whole entry): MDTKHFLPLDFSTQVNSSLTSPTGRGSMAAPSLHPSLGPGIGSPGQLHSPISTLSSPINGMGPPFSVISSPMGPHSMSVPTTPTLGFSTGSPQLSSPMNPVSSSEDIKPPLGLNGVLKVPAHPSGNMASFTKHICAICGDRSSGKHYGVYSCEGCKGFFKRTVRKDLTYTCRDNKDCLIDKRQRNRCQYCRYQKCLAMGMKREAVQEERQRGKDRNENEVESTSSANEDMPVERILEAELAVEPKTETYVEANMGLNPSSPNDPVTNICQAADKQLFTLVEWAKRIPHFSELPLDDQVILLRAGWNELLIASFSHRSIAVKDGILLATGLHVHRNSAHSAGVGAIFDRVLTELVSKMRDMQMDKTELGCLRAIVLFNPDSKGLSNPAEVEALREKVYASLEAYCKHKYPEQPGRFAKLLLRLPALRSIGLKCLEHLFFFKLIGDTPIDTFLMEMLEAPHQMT
Briefly: Selectivity interaction (Reporter gene assay) EUB0001156a RXRA. Set-up: recommended concentration 1 uM. The note with it: reference bexarotene 1 uM, Selectivity number of off-targets 0.0, Selectivity number of targets 1.0, Source Knowledge inhouse.

Assay [6] addresses T4, Nuclear receptor subfamily 2 group C member 1 (Homo sapiens) (UniProt P13056).
T4 sequence (whole entry): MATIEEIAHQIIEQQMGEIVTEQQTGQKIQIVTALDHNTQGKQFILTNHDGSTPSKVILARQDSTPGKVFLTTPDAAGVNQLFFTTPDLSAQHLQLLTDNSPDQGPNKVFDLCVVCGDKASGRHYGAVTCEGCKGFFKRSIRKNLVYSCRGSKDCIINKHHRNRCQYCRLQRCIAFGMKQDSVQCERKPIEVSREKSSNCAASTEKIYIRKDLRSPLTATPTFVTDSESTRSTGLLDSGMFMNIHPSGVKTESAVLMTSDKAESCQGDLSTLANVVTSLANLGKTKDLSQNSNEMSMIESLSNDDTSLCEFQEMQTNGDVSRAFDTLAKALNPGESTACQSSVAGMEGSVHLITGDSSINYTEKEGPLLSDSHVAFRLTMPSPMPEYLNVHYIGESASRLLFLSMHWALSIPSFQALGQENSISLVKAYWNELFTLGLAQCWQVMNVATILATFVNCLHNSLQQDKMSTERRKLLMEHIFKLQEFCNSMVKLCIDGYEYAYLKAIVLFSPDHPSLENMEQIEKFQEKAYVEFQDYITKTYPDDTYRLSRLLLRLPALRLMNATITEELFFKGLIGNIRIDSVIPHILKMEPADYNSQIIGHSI
The assay can be described thus: Selectivity interaction (Reporter gene assay) EUB0001156a NR2C1. Also noted: recommended concentration 1 uM.

For assay [7], the target named is Steroidogenic factor 1 (Homo sapiens) (UniProt Q13285). Briefly: Selectivity interaction (Reporter gene assay) EUB0001156a NR5A1. Also noted: recommended concentration 1 uM.
Assay [8] has as its target T4, Nuclear receptor subfamily 2 group C member 1 (Homo sapiens). The assay can be described thus: Selectivity interaction (Reporter gene assay) EUB0001155a NR2C1. Set-up: recommended concentration 10 uM. The following applies: screened at recom. conc., Selectivity number of off-targets 2.0, Selectivity number of targets 5.0, Source Knowledge inhouse.
Assay [9] addresses T1, Alpha trans-inducing protein (Human alphaherpesvirus 1). The assay can be described thus: Selectivity interaction (Reporter gene assay) EUB0001155a UL48. Also noted: recommended concentration 10 uM.
Assay [10] concerns the target Steroidogenic factor 1 (Homo sapiens) (UniProt Q13285). Briefly: Selectivity interaction (Reporter gene assay) EUB0001155a NR5A1. Also noted: recommended concentration 10 uM.
In assay [11] the target is Nuclear receptor subfamily 4immunitygroup A member 1 (Homo sapiens) (UniProt P22736). Briefly: Selectivity interaction (Reporter gene assay) EUB0001155a NR4A1. Set-up: recommended concentration 10 uM.
The target of assay [12] is Nuclear receptor subfamily 2 group E member 1 (Homo sapiens) (UniProt Q9Y466). The assay can be described thus: Selectivity interaction (Reporter gene assay) EUB0001155a NR2E1. The note with it: screened at recom. conc., Selectivity number of off-targets 2.0, Selectivity number of targets 5.0, Source Knowledge inhouse. Also noted: recommended concentration 10 uM.
The target of assay [13] is T3, Retinoic acid receptor RXR-alpha (Homo sapiens). The assay can be described thus: Selectivity interaction (Reporter gene assay) EUB0001155a RXRA. Set-up: recommended concentration 10 uM. The following applies: reference bexarotene 1 uM, Selectivity number of off-targets 0.0, Selectivity number of targets 1.0, Source Knowledge inhouse.
In assay [14] the target is T2, Hepatocyte nuclear factor 4-alpha (Homo sapiens). Briefly: Selectivity interaction (Reporter gene assay) EUB0001155a HNF4A. Also noted: recommended concentration 10 uM.
The target in assay [15] is T3, Retinoic acid receptor RXR-alpha (Homo sapiens). Briefly: Selectivity interaction (Reporter gene assay) EUB0001151a RXRA. Also noted: recommended concentration 1 uM. The note with it: reference bexarotene 1 uM, Selectivity number of off-targets 0.0, Selectivity number of targets 1.0, Source Knowledge inhouse.
Assay [16] has as its target T4, Nuclear receptor subfamily 2 group C member 1 (Homo sapiens). The assay can be described thus: Selectivity interaction (Reporter gene assay) EUB0001151a NR2C1. Also noted: recommended concentration 1 uM.
In assay [17] the target is T2, Hepatocyte nuclear factor 4-alpha (Homo sapiens). Briefly: Selectivity interaction (Reporter gene assay) EUB0001151a HNF4A. Also noted: recommended concentration 1 uM.
For assay [18], the target named is T1, Alpha trans-inducing protein (Human alphaherpesvirus 1). Briefly: Selectivity interaction (Reporter gene assay) EUB0001151a UL48. Set-up: recommended concentration 1 uM.
Assay [19] has as its target Steroidogenic factor 1 (Homo sapiens) (UniProt Q13285). The assay can be described thus: Selectivity interaction (Reporter gene assay) EUB0001151a NR5A1. Also noted: recommended concentration 1 uM.
In assay [20] the target is T5, Peroxisome proliferator-activated receptor gamma (Homo sapiens) (UniProt P37231).
T5 sequence (whole entry): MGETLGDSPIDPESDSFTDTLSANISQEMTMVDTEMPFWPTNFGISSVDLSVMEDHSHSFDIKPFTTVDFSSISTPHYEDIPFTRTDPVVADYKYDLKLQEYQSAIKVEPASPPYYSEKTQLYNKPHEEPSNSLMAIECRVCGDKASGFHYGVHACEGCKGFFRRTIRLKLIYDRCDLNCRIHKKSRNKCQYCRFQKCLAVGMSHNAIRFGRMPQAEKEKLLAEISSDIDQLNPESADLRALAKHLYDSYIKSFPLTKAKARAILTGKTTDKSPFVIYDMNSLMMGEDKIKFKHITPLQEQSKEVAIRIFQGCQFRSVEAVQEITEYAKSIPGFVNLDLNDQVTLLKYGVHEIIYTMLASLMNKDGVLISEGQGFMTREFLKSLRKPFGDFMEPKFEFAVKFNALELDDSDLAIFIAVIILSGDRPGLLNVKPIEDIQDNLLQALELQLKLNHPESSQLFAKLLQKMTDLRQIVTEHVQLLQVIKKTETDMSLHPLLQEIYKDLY
Briefly: Selectivity interaction (Reporter gene assay) EUB0001151a PPARG. Set-up: recommended concentration 1 uM. The following applies: screened at recom. conc., Selectivity number of off-targets 1.0, Selectivity number of targets 19.0, Source Knowledge inhouse.

In assay [21] the target is Nuclear receptor subfamily 2 group E member 1 (Homo sapiens) (UniProt Q9Y466). Briefly: Selectivity interaction (Reporter gene assay) EUB0001151a NR2E1. Also noted: recommended concentration 1 uM.
The target of assay [22] is Nuclear receptor subfamily 4immunitygroup A member 1 (Homo sapiens) (UniProt P22736). The assay can be described thus: Selectivity interaction (Reporter gene assay) EUB0001151a NR4A1. Also noted: recommended concentration 1 uM.
For assay [23], the target named is T4, Nuclear receptor subfamily 2 group C member 1 (Homo sapiens). The assay can be described thus: Selectivity interaction (Reporter gene assay) EUB0001157a NR2C1. Set-up: recommended concentration 10 uM.
The target in assay [24] is Nuclear receptor subfamily 2 group E member 1 (Homo sapiens) (UniProt Q9Y466). Briefly: Selectivity interaction (Reporter gene assay) EUB0001157a NR2E1. Also noted: recommended concentration 10 uM.
For assay [25], the target named is T3, Retinoic acid receptor RXR-alpha (Homo sapiens). Briefly: Selectivity interaction (Reporter gene assay) EUB0001157a RXRA. Set-up: recommended concentration 10 uM. The following applies: reference bexarotene 1 uM, Selectivity number of off-targets 0.0, Selectivity number of targets 1.0, Source Knowledge inhouse.
For assay [26], the target named is T2, Hepatocyte nuclear factor 4-alpha (Homo sapiens). The assay can be described thus: Selectivity interaction (Reporter gene assay) EUB0001157a HNF4A. Set-up: recommended concentration 10 uM.
Assay [27] addresses T1, Alpha trans-inducing protein (Human alphaherpesvirus 1). Briefly: Selectivity interaction (Reporter gene assay) EUB0001157a UL48. Also noted: recommended concentration 10 uM.
For assay [28], the target named is Steroidogenic factor 1 (Homo sapiens) (UniProt Q13285). Briefly: Selectivity interaction (Reporter gene assay) EUB0001157a NR5A1. Set-up: recommended concentration 10 uM.
Assay [29] addresses Nuclear receptor subfamily 4immunitygroup A member 1 (Homo sapiens) (UniProt P22736). The assay can be described thus: Selectivity interaction (Reporter gene assay) EUB0001157a NR4A1. Set-up: recommended concentration 10 uM.

Chain of Steroidogenic factor 1 (Homo sapiens) (Q13285 whole entry): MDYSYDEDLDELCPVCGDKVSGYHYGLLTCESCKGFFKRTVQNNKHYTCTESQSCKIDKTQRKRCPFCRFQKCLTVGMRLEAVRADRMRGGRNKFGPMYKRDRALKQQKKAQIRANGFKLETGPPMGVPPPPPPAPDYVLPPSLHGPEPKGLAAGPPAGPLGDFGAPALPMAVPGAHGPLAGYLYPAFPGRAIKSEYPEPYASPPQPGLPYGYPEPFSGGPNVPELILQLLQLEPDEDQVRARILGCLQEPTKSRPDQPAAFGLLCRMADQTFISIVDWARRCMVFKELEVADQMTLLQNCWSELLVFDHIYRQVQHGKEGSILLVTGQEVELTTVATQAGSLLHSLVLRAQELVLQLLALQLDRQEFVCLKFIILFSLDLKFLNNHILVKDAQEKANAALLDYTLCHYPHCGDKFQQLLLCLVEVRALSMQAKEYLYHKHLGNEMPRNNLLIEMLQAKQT
Chain of Nuclear receptor subfamily 2 group E member 1 (Homo sapiens) (Q9Y466 whole entry): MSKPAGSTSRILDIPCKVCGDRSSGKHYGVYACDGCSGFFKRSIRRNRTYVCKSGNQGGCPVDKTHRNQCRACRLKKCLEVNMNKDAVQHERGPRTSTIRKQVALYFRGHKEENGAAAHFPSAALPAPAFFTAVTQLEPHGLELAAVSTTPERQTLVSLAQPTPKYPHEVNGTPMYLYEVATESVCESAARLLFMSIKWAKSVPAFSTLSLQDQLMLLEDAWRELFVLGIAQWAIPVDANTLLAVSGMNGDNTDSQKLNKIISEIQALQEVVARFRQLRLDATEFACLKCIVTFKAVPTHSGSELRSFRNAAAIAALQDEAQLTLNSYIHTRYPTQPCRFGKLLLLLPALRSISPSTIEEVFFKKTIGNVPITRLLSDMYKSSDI
T1 sequence (A0A5J6DW59 as listed by the source): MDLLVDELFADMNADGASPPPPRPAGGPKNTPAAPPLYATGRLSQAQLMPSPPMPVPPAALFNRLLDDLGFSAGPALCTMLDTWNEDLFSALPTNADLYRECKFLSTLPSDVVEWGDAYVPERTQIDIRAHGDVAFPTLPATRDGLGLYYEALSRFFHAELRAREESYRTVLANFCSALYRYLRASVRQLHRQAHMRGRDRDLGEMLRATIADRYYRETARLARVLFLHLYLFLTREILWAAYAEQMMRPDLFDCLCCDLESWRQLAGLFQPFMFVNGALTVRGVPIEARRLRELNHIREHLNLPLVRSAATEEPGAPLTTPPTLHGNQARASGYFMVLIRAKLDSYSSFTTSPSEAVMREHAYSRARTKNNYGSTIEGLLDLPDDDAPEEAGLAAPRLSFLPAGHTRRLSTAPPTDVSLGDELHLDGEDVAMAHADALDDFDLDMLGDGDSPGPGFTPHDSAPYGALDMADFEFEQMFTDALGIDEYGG
Chain of Nuclear receptor subfamily 4immunitygroup A member 1 (Homo sapiens) (P22736 whole entry): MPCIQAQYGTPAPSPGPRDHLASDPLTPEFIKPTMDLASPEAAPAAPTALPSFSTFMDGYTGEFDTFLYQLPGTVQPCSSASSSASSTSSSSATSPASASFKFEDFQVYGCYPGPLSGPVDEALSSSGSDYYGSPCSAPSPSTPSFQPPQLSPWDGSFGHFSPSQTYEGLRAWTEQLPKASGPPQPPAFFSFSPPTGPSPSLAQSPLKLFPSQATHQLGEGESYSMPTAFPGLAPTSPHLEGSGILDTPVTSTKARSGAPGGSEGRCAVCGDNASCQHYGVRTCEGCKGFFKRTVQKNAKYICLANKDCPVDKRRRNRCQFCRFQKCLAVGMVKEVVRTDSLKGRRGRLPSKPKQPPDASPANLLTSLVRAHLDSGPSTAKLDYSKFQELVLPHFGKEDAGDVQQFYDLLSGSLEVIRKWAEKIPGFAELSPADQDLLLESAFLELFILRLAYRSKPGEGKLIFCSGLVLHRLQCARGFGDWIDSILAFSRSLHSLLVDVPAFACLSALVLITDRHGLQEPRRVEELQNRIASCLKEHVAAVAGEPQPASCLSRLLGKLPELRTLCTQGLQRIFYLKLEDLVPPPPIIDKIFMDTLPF

Consider `O=C(Nc1ccc(C(O)(C(F)(F)F)C(F)(F)F)cc1)c1ccc(C(F)(F)F)cc1`, for which the Remaining activity stood at 0.858 in assay [1] and 0.903 in assay [2]. In addition, the P-value in assay [3] stood at 0.167. The figures for the Fold activation in [4], in [6] and in assay [7] were 1.11, 1.1 and 1.1, respectively. The same compound registered a Relative activation in assay [5] of 0.302%.
For the compound `CCCCCNC(=O)N1CCC(CN(Cc2ccc(Cl)cc2)Cc2ccc([N+](=O)[O-])s2)C1` (centres undefined), the Remaining activity was 0.487 in [8], 0.483 in assay [12] and 0.711 in [14]. Moreover, the P-value in assay [9] amounted to 1.75e-05. For the same compound, the Fold activation was determined as 1.16 in assay [10] and 1.24 in assay [11]. The compound further returned a Relative activation in assay [13] of 0.1%.
`O=C(NCCS(=O)(=O)c1ccc(C(F)(F)F)cn1)c1ccc(Cl)cc1` gave a Relative activation in assay [15] of 0.596%. For the same compound, the Fold activation in assay [16] was 1.39; in [17], 1.25; in assay [21], 1.11; in [22] it was 1.27. In assay [18], this compound displayed a P-value of 0.0023. For the same compound, the values for the Remaining activity in assay [19] and in [20] were 0.9 and 0.832, respectively.
For `O=S(=O)(Nc1ccc(C(O)(C(F)(F)F)C(F)(F)F)cc1)c1cccs1`, the Remaining activity in assay [23] was determined as 0.846; in assay [24] it was 0.634; in assay [26], 0.822; in assay [28], 0.818; in [29], 0.943. The same compound registered a Relative activation in assay [25] of 0.211%. This compound gave a P-value in assay [27] of 0.00195.
